pIC50: −log10 of the molar value.

Sequence of DAR-2 (Q7KRX1 entry or part of it): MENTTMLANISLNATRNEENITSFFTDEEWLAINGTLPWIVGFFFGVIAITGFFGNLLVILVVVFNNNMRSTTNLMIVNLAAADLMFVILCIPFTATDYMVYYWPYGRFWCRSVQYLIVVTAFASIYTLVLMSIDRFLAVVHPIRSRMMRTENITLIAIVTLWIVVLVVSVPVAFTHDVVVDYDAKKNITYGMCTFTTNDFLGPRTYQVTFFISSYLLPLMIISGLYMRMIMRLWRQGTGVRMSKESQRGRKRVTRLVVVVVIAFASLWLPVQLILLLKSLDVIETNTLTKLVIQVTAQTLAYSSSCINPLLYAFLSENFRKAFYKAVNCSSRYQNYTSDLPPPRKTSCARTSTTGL

In one test the target is DAR-2 (Drosophila melanogaster, UniProt Q7KRX1). Nature of the test: DAR-2 (allatostatin receptor) calcium response FLIPR assay in transfected CHO cells. The format is cell-based. The settings on record: CHO cells transfected with DAR-2 DNA; calcium signal (Fluo-3AM, FLIPR). As to the method:
Compounds of the invention were evaluated in an allatostatin receptor binding assay as has been described (Larsen, M. J. et. al., Biochemical and Biophysical Reseach Communications, 2001, 286, 895-901; Lowery, D. E., et. al., 2001, WO 01/31005). Anthelmintic activity was evaluated in a Ascaris suum muscle tension assay as has been described (Bowman, J. W., et. al., J Neurophys., 1995, 74(5), 1880-8; Davis, R. E., et. al., J. Neurosci., 1989, 9, 403-414).
As previously described (Larsen op.cit.), CHO cells were transfected with the DAR-2 DNA on 10 cm plates ([…]) and were trypsinized 24 h after transfections and were plated at a density of 2×10^4 cells/well in black-walled, 96-well plates and incubated for an additional 24 hrs at 37° C./5% CO2 either with or without pertussis toxin (PTX, 100 ng/ml). On the day of treatment, the media were aspirated, the cells were washed with HBBS/HEPES (Hank's Balanced Salt Solution, supplemented with 10 mM HEPES) and incubated with 4 μM Fluo-3AM in HBSS/HEPES, additionally supplemented with 2.5 mM probenecid to inhibit multi drug resistant pump (0.1 ml/well) for 1 h at 37° C./5% CO2. Plates were washed twice with warm HBSS/HEPES/ probenecid buffer immediately prior to activation of the calcium response and 100 μl buffer/per well was left after the last wash. A calcium response was initiated by the addition of candidate receptor agonist compounds (2× concentration in HBSS/HEPES, 100 μl/well). The DSK-R1/SHEP cells were loaded for 1 h at 37° C./5% CO2 with 4 μM calcium green/0.02% pluronic acid in modified Earle's balanced salt solution containing 4 mM CaCl2 dihydrate, 0.8 mM MgSO4.7H2O, 20 mM NaCl, 20 mM Tris-HEPES, 120 mM N-methyl-D-glucamine/HCl, 5.3 mM KCl, […], and 9 mM Tris base. Fluorescence was measured on a 96-well plate-based fluorescence imaging plate reader (FLIPR) with an argon laser (Molecular Devices, Sunnyvale, Calif.). Basal fluorescence of cells was measured for 20 seconds prior to addition of candidate agonist and the basal fluorescence level was subtracted from the response signal. The calcium signal was measured for approximately 200 seconds with readings every two seconds. Calcium ionophore A23187 was used as a control for non-receptor specific calcium release. […]
As to `COc1ccc(C(=O)CSc2nnc(-c3ccncc3)n2-c2ccccc2)cc1` [Compound 6], the pIC50 was 7.27.

For `O=C(CSc1nnc(-c2ccncc2)n1-c1ccccc1)c1ccc(Cl)cc1` [Compound 7], the pIC50 was 7.11.

Regarding `CC(=O)Nc1ccc(C(=O)CSc2nnc(-c3ccncc3)n2-c2ccccc2)cc1[N+](=O)[O-]` [Compound 9], the negative logarithm of the IC50 (pIC50) was 6.12.

Turning to `CC(=O)Nc1ccc(C(=O)CSc2nnc(-c3ccncc3)n2-c2ccccc2)cc1` [Compound 10], the pIC50 was 6.53.

Consider `O=C(CSc1nnc(-c2ccncc2)n1-c1ccccc1)c1ccc(F)cc1` [Compound 11], for which the pIC50 was 6.57.

Consider `O=C(CSc1nnc(-c2ccncc2)n1-c1ccccc1)c1ccccc1` [Compound 12], for which the pIC50 was 6.91.

Regarding `O=C(CSc1nnc(-c2ccncc2)n1-c1ccccc1)c1ccc(Cl)cc1Cl` [Compound 13], the negative logarithm of the IC50 (pIC50) was 5.92.

For the compound `O=C(CSc1nnc(-c2ccncc2)n1-c1ccccc1)c1ccc2c(c1)OCCO2` [Compound 14], the pIC50 is 6.36.

For `O=C(CSc1nnc(-c2ccncc2)n1-c1ccccc1)c1ccc2[nH]c(=O)oc2c1` [Compound 15], the pIC50 is 5.35.

`COc1ccc(-n2c(SCC(=O)c3ccc4c(c3)OCCO4)nnc2-c2ccncc2)cc1` [Compound 36]: the pIC50 was 6.99.

With `COc1ccc(C(=O)CSc2nnc(-c3ccc(OC)cc3)n2-c2ccccc2)cc1` [Compound 43], the pIC50 was 11.85.

The subject of a further test is Ascaris suum muscle strip. Nature of the test: Ascaris suum muscle tension assay. The settings on record: 30 uM final bath concentration; 2 cm Ascaris suum muscle strip in Ascaris Ringers Solution, 37°. As to the method: Compounds of the invention were evaluated in an allatostatin receptor binding assay as has been described (Larsen, M. J. et. al., Biochemical and Biophysical […] Communications, 2001, 286, 895-901; Lowery, D. E., et. al., 2001, WO 01/31005). Anthelmintic activity was evaluated in a Ascaris suum muscle tension assay as has been described (Bowman, J. W., et. al., J Neurophys., 1995, 74(5), 1880-8; Davis, R. E., et. al., J. Neurosci., 1989, 9, 403-414). As previously described (Bowman, op.cit.), a 2 cm segment of Ascaris suum muscle strip was suspended in a muscle bath filled with 37° Ascaris Ringers Solution {ARS; in mM: KCl (24.5), CaCl2 (5.9), MgCl2 (4.9), NaCl (4), NaC2 H3O2 (125) and Tris (5); pH 7.4}. The preparations were initially set at 12-15 g of tension and allowed to stabilize for approximately 15-30 minutes before drug treatment. Test compounds were added by pipet to the bath with final concentration of 30 uM reflecting the dilution in the test chamber. Raw data was collected from the BioReportTM program.
Regarding `COc1ccc(C(=O)CSc2nnc(-c3ccncc3)n2-c2ccccc2)cc1` [Compound 6], the Activity result is given as “Excitatory”.

(Values after patent US20040171650A1, “Novel anthelmintic and insecticidal compositions” (priority 2003, published 2004).)
